Values quoted from earlier work, collected in US20090169619A1, “CARBAMAZEPINE EXTENDED RELEASE DOSAGE FORM” (CorePharma LLC, priority 2005, published 2009).

solubility in water: poor solubility
SMILES: NC(=O)N1c2ccccc2C=Cc2ccccc21 [Carbamazepine, 5H-Dibenz[b,f]azepine-5-carboxamide]
